Earlier results in patent US9974722B2, “Reduced-ethanol mouth rinse formulations” (Johnson & Johnson Consumer Inc., priority 2016, dated 2018).

For `CC1CCC(C(C)C)C(O)C1` (stereo not shown) [Menthol], which solubility in alcohol is on record?
Its solubility in alcohol is “only slightly soluble”.
